Test results reported in patent US4427668A, “26-Hydroxycholesterol and derivatives and analogs thereof in regulation of cholesterol accumulation in body tissue” (New York University, priority 1982, dated 1984).

Experiments:
HMG-CoA reductase [1] = settings: 2.5 μM, 5 hours; Chang et al, J. Biol. Chem. 256:6304 (1981); cited from earlier work
HMG-CoA reductase [2] = experiment: HMG-CoA reductase activity in Chinese hamster ovary (CHO-K1) cell culture, as mevalonate formed; type: cell-based; settings: CHO-K1 cells
Procedure: The effect of 26-hydroxycholesterol on HMG-CoA reductase activity was determined using the procedures of Chang et al, J. Biol. Chem. 256:6304 (1981). Chinese hamster ovary cells, CHO-Kl cells (also referred to as wild type) were obtained from the American Type Culture Collection and grown in Falcon flasks on Ham's F-12 media containing 10% fetal calf serum. Approximately 21/2 days after cells were removed from the stock flask cultures and seeded into petri dishes (60 mm), each containing 0.03×10^6 cells, they were rinsed with phosphate-buffered saline (PBS) and then grown in F-12 media containing 10% delipidated fetal calf serum for 48 hours with one change of media. Following this, either fresh media (still with delipidated calf serum) or fresh media containing 0.14% DMSO alone or 26-hydroxycholesterol was added and the cells incubated for varying periods of time. Our final concentration of DMSO was less than Chang (0.14% vs. 0.3%) and comparison of HMG-CoA reductase activity at 5 hours with media not containing DMSO gives the same or slightly higher (not significant) values. Under these conditions, over 50% inhibition has been obtained using the 0.25 μM concentration of 26-hydroxycholesterol and incubating for 5 hours. Not only is the mean highly significant but none of the individual control flasks overlap with the individual flasks containing 26-hydroxycholesterol. Using a concentration 10 X greater (2.5 μM) of 25-hydroxycholesterol, Chang reported 80% inhibition at 5 hours. Table 1 below sets forth average results of this experiment when carried out on a single day. […] HMG-CoA reductase activity was determined using the double-label technique of Pitot et al, J. Lipid Res. 12:512 (1971) and the thin-layer separation of Shapiro et al, Anal. Biochem. 31:383 (1969). […] The mevalonlactone is separated by thin-layer chromatography and the ^14 C/^3 H ratio determined from which the total amount of ^14 C can be calculated (corrected for ^3 H recovered) and expressed per mg of cytosolic protein by the Lowry method.

| SMILES | inhibition of HMG-CoA reductase activity reported by Chang (HMG-CoA reductase [1]) | % Inhibition of HMG-CoA reductase activity (HMG-CoA reductase [2]; 0.25 μM in 0.14% DMSO, 5 hours incubation, average of a single day) | HmG Co-A Reductase Activity (as mevalonate formed) (HMG-CoA reductase [2]; 0.25 μM in 0.14% DMSO, 5 hours incubation, DMSO control 0.048) | inhibition of HMG-CoA reductase activity (HMG-CoA reductase [2]; 0.25 μM, incubating for 5 hours) |
| --- | --- | --- | --- | --- |
| C[C@H](CCCC(C)(C)O)[C@H]1CC[C@H]2[C@@H]3CC=C4C[C@@H](O)CC[C@]4(C)[C@H]3CC[C@]12C [25-hydroxycholesterol] | 80% |  |  |  |
| C[C@@H](CO)CCC[C@@H](C)[C@H]1CC[C@H]2[C@@H]3CC=C4C[C@@H](O)CC[C@]4(C)[C@H]3CC[C@]12C [26-hydroxycholesterol] |  | 65% | 0.017 nMol/min/mg protein | over 50% |
